Laboratory results from patent publication US7160725B2, “Hedgehog signaling promotes the formation of three dimensional cartilage matrices” (Curis, Inc., priority 2001, dated 2007).
“Also recorded” adds a separate entry of the source.

Experiments:
Type in all cases: cell-based, human
Mesenchymal stem cells [1] = experiment: Change in mesenchymal stem cell behavior following factor treatment (culture observation)
Experimental: Mesenchymal stem cells were derived from human volunteers under general anesthesia. Bone marrow was harvested from the iliac crest by aspiration. Approximately 5 mL of bone marrow was suspended in essential medium containing 20% fetal bovine serum (FBS), antibiotics, and glutamine (Sigma). […] The non-adherent cells, as well as any debris, is easily separated from the adherent mesenchymal stem cells.
Mesenchymal stem cells were plated at a density of 1×10^6/mL in a six well plate. Following adhesion of the cells to the plate, cells were treated with either medium containing 20% FBS, with medium supplemented with TGFβ-1, or with medium supplemented with sonic hedgehog.
Following adhesion of cells to the plate, cells were treated with either medium containing 20% FBS (negative control), medium containing 1 ng/mL TGFβ-1, or medium containing 100 ng/mL of the lipid modified N-terminal fragment of sonic hedgehog. In all cases, the medium was changes twice per week throughout the duration of the experiment.

Mesenchymal stem cells [2] = experiment: Alcian blue staining of paraffin sections of treated tissue; conditions: 100 ng/mL lipid modified sonic hedgehog; 21 days; Alcian blue pH 2.5
Experimental: (§1) Mesenchymal stem cell cultures were established, as described in detail above. Cells were cultured in the presence of 20% FBS, 1 ng/mL TGFβ-1, or 100 ng/mL lipid modified sonic hedgehog, and the medium was changed twice per week. After 21 days in culture, tissue was harvested, and fixed overnight in formaline solution. Fixed tissue was washed, dehydrated, embedded in paraffin, and 4 μm sections were cut using a microtome. Sections were mounted on adhesive slides, and processed for histology and immunohistochemistry.
Mounted paraffin sections were stained with Alcian blue. Sections were treated with Alcian blue, pH 2.5 and 3% Acetic acid for five minutes. Following treatment, the sections were washed with ultrapure water.

Mesenchymal stem cells [3] = experiment: Immunohistochemistry of paraffin sections of treated tissue; conditions: 100 ng/mL lipid modified sonic hedgehog; 21 days
Experimental: as §1
Mounted paraffin sections were processed for immunohistochemistry with an automatic stainer (DAKO TechMate™) using indirect streptavidin-biotin methods with a Fuchsintype chromogen. The following primary antibodies were used: vimentin, collagen II, Indian hedgehog, PTHrp, BMPR-IA, BMPR-IB, and BMPR-II. Immunohistochemistry was by standard methods except for the PTHrp antibody which required incubation of the tissue with proteinase K.

Mesenchymal stem cells [4] = experiment: Hematoxyline-eosine staining of paraffin sections of treated tissue; conditions: 100 ng/mL lipid modified sonic hedgehog; 21 days
Experimental: as §1
Mounted paraffin sections were stained with hematoxyline-eosine, and viewed under a light microscope.

[5] = 1 ng/mL TGFβ-1, after a week in culture

Substance | cell morphology (Mesenchymal stem cells [1]; [5]) | cell size (Mesenchymal stem cells [1]; [5]) | proliferative effects on mesenchymal stem cells (Mesenchymal stem cells [1]; treatment with TGFβ-1) | cell migration and clustering in the culture well (Mesenchymal stem cells [1]; 100 ng/mL lipid modified N-terminal fragment of sonic hedgehog, after the first two weeks in culture) | formation of a ball of tissue from the cell cluster (Mesenchymal stem cells [1]; 100 ng/mL lipid modified N-terminal fragment of sonic hedgehog, approximately three weeks in culture) | cell proliferation in culture (Mesenchymal stem cells [1]; 100 ng/mL lipid modified N-terminal fragment of sonic hedgehog, first two weeks in culture) | Alcian blue staining (acid mucopolysaccharids) (Mesenchymal stem cells [2]) | BMPR-IA immunostaining (Mesenchymal stem cells [3]) | BMPR-IB immunostaining (Mesenchymal stem cells [3]) | BMPR-II immunostaining (Mesenchymal stem cells [3]) | Indian hedgehog immunostaining (Mesenchymal stem cells [3]) | PTHrp immunostaining (Mesenchymal stem cells [3]) | collagen II immunostaining (Mesenchymal stem cells [3]) | vimentin immunostaining (Mesenchymal stem cells [3]) | tissue organization and matrix production (hematoxyline-eosine, light microscope) (Mesenchymal stem cells [4])
TGFβ-1: TGFβ family polypeptide, added to the culture medium at 1 ng/mL | morphologically distinct | larger | robust proliferative effects |  |  |  |  |  |  |  |  |  |  |  | 
sonic hedgehog |  |  |  | appeared to migrate and clustered in one half the area of the culture well | condensed and migrated to form a small ball; also recorded: formed a grayish-white ball | proliferated efficiently | Positive | not detected; also recorded: immunonegative | immunopositive | immunopositive | immunonegative | immunopositive | strongly expressed; also recorded: strongly immunopositive | strongly immunopositive | extensive organization of the tissue, the intricate folding of the layers, and the abundant matrix production; also recorded: highly organized, contains several folded layers, and produces abundant matrix
